Measurements published in PubChem BioAssay AID624269 (Broad Institute, 2012).
Calls of active or inactive are those of the source. How the calls were made is not given here.

Assays:
[1] = Quorum LuxO agonist, light production in absence of autoinducers, Vibrio cholerae, confirmatory (AID 624269); details: Vibrio cholerae BH1651 luxOD47E, luciferase light induction, 6 h
[2] = system: Vibrio cholerae BH1651 luxOD47E, luciferase light induction, 6 h; assay: as above

O=c1ncn(-c2cccc(Cl)c2)c2ccccc12
activation ([1]; at 8 µM (top of the series)): 0% (inactive)

CCCn1nnnc1NCc1ccc(C(C)C)cc1
activation ([1]; at 35 µM (top of the series)): 33.3% (inactive)

O=C(Nc1nnc(-c2ccc3c(c2)OCCO3)o1)C1CCCCC1
AC40 [2]: 0.865 nM

COc1ccc(Cl)cc1NC(=O)COC(=O)c1ccc(C)o1
activation ([1]; at 35 µM (top of the series)): 0% (inactive)

CCn1nnc(NCc2ccc(C)cc2)n1
activation ([1]; at 35 µM (top of the series)): 0% (inactive)

CCCn1nnnc1NCc1ccc(N2CCCC2)cc1
activation ([1]; at 35 µM (top of the series)): -50% (inactive)

CCCn1nnnc1NCc1ccccc1Cl
activation ([1]; at 8 µM (top of the series)): 0% (inactive)

COc1ccccc1NC(=O)COC(=O)c1cc2c(s1)CCC2
activation ([1]; at 35 µM (top of the series)): 0% (inactive)

CCOc1ccc(Nc2ccc3nonc3c2[N+](=O)[O-])cc1
activation ([1]; at 35 µM (top of the series)): 0% (inactive)

Cc1ccc2cc3c(NC(=O)c4ccco4)nn(C)c3nc2c1
AC40 [2]: > 35000 nM (inactive)

CCC(C)NC(=O)Cc1ccc(-c2ccccc2)cc1 (stereo not given)
activation ([1]; at 35 µM (top of the series)): -33.3% (inactive)

O=C(Cc1ccc(-c2ccccc2)cc1)NC1CCCC1
AC40 [2]: 239 nM

CCn1c(CC(=O)Nc2cccc(Cl)c2Cl)nnc1SCCOc1ccc(OC)cc1
activation ([1]; at 35 µM (top of the series)): -50% (inactive)

CCn1nnnc1NCc1ccc(N2CCCC2)cc1
activation ([1]; at 35 µM (top of the series)): 66.7% (inactive)

Cc1c(Cl)cccc1-n1cnc(=O)c2ccccc21
activation ([1]; at 35 µM (top of the series)): 50% (inactive)

CCCn1nnnc1NCc1ccc(N(CC)CC)cc1
activation ([1]; at 35 µM (top of the series)): 0% (inactive)

COc1ccccc1NC(=O)COC(=O)c1oc2ccccc2c1C
activation ([1]; at 35 µM (top of the series)): 0% (inactive)

Cc1ccc(OCCNC(=O)c2cccc(C)c2)cc1
AC40 [2]: 312 nM

COc1ccccc1NC(=O)COC(=O)c1ccc(C)cc1
activation ([1]; at 35 µM (top of the series)): 0% (inactive)

Cc1ccc(CC(=O)NC2CCCC2)cc1
activation ([1]; at 35 µM (top of the series)): 0% (inactive)
